These results are taken from patent US20240254087A1, “SELECTIVE, PARTIAL, AND ARRESTIN-BIASED 5-HT2A AGONISTS WITH UTILITY IN VARIOUS DISORDERS” (Saint Joseph's University, priority 2021, published 2024).

Counter-ions that a name gives are not always drawn. Like-named read-outs stand apart in the source and are kept apart here. A value given as a limit tells only on which side of the number the result lay.

Data set [1] has as its system 5-HT2A. The data set can be described thus: Ca2+ flux assay, 5-HT2A. In kind it is cell-based, human. Conditions: Gq/11 Ca2+ mobilization; higher number = skewed towards 5-HT2A. Here is the method:
(§1) Cell lines were maintained in DMEM containing 10% FBS, 10 μg/mL Blasticidin (Invivogen), and 100 μg/mL Hygromycin B (GoldBio). At least 20-24 hours before the assay, receptor expression was induced with tetracycline ([…]) and cells were seeded into 384-well poly-L-lysine-coated black plates at a density of 7,500 cells/well in DMEM containing 1% dialyzed FBS. On the day of the assay, the cells were incubated for 1 h at 37° C. with Fluo-4 Direct dye (Invitrogen, 20 μl/well) reconstituted in drug buffer (20 mM HEPES-buffered HBSS, pH 7.4) containing 2.5 mM probenecid. Drug dilutions were prepared at 5X final concentration in McCorvy buffer (20 mM HEPES-buffered HBSS, 0).1% BSA, 0.01% ascorbic acid pH 7.4). After dye load, cells were allowed to equilibrate to room temperature for 15 minutes, and then placed in a FLIPR^TETRA fluorescence imaging plate reader (Molecular Devices). Fluorescence for the FLIPR^TETRA were programmed to read baseline fluorescence for 10 s (1 read/s), and afterward 5 μl of drug per well was added and read for a total of 5-10 min (1 read/s). Fluorescence in each well was normalized to the average of the first 10 reads for baseline fluorescence, and then either maximum-fold peak increase over basal or area under the curve (AUC) was calculated. […] Data was plotted and non-linear regression was performed using “log(agonist) vs. response” in Graphpad Prism 8 to yield Emax and EC50 parameter estimates.
(Calcium flux is commonly read through the fluorescence of an indicator in the cells.)

The subject of a further data set is male C57BL/6J mice. The data set is described as follows: Head-twitch response (HTR) in mice. In kind it is in vivo, mouse. Particulars: for ED50: Mus musculus. Here is the method: Male C57BL/6J mice (6-8 weeks old) from Jackson Labs (Bar Harbor, ME, USA) were used for the behavioral experiments. The mice were housed on a reversed light-dark cycle (lights on at 1900 h, off at 0700 h) in an AAAC-approved vivarium at the University of California San Diego. Mice were housed up to four per cage in a climate-controlled room and with food and water provided ad libitum except during behavioral testing. Testing was performed between 1000 and 1800 h (during the dark phase of the light-dark cycle). The studies were conducted in accordance with National Institutes Health (NIH) guidelines and were approved by the University of California San Diego Institutional Animal Care and Use Committee.
The mice were allowed to recover from the magnet implantation surgeries for at least 1 week prior to behavioral testing. HTR experiments were conducted in a well-lit room, and the mice were allowed to habituate to the room for at least 1 h prior to testing. Head twitches was assessed in a 12-cm diameter glass cylinder surrounded by a magnetometer coil. Coil voltage was low-pass filtered (2 kHz), amplified, and digitized (20-kHz sampling rate) using a Powerlab/8SP with LabChart v 7.3.2 (ADInstruments, Colorado Springs, CO, USA). […] HTR counts were analyzed using one-way ANOVAs. Dunnett's test was used for post hoc comparisons.

Data set [2] deals with 5-HT2A (Homo sapiens, UniProt P28223). The data set is described as follows: Ca2+ flux assay, 5-HT2A. The class given is cell-based. Conditions: for EC50: 5-HT2A EC50, nM, Ca2+ flux; for Emax: read-out: 5-HT2A Emax % 5-HT, Ca2+ flux. More on the design: expressed in transfected cells. On the procedure: as §1
For data set [3], the target named is T1, 5-HT2B (Homo sapiens, UniProt P41595). The data set can be described thus: Ca2+ flux assay, 5-HT2B. The class given is cell-based. Further details: expressed in transfected cells. Conditions: Ca2+ flux; for Emax: read-out: 5-HT2B Emax % 5-HT. On the procedure: as §1
Data set [4] addresses T2, 5-HT2C (Homo sapiens, UniProt P28335).
T2 sequence (P28335 33-458): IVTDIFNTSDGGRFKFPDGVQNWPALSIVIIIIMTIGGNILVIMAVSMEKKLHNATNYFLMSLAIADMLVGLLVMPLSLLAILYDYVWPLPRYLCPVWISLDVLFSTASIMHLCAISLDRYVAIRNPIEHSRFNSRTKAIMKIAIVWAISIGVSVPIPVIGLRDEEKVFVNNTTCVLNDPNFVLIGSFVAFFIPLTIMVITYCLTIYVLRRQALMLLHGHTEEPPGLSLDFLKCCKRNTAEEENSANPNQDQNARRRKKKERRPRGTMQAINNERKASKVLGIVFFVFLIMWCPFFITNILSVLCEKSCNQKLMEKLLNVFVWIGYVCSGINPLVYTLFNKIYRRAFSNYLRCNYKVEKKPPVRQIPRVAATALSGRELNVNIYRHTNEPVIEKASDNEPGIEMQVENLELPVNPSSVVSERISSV
The data set can be described thus: Ca2+ flux assay, 5-HT2C. The class given is cell-based. More on the design: expressed in transfected cells. Particulars: for EC50: 5-HT2C EC50, nM; for Emax: read-out: 5-HT2C Emax % 5-HT. On the procedure:
as §1

In data set [5] the target is T1, 5-HT2B. The data set is described as follows: BRET Gq dissociation, 5-HT2B. In kind it is cell-based. Further details: expressed in transfected cells; host or cells: HEK293T, transient. Conditions: for Emax: read-out: 5-HT2B Gq Dissociation (BRET) EMAX ± SEM (%5-HT). On the technique in general: BRET reads energy transfer from a luciferase to a nearby fluorophore.
For data set [6], the target named is T2, 5-HT2C. The data set can be described thus: BRET Gq dissociation, 5-HT2C. In kind it is cell-based. Further details: expressed in transfected cells; host or cells: HEK293T, transient. Particulars: for Emax: read-out: 5-HT2C Gq Dissociation (BRET) EMAX ± SEM (%5-HT).
Setting [7] is: read-out: HTR ED50 μmol/kg (95% CI), SC, except DOI and 25D-NBOMe IP.
[8] abbreviates: read-out: HTR ED50 mg/kg (95% CI), SC, except DOI and 25D-NBOMe IP.

T1 sequence (P41595 whole entry): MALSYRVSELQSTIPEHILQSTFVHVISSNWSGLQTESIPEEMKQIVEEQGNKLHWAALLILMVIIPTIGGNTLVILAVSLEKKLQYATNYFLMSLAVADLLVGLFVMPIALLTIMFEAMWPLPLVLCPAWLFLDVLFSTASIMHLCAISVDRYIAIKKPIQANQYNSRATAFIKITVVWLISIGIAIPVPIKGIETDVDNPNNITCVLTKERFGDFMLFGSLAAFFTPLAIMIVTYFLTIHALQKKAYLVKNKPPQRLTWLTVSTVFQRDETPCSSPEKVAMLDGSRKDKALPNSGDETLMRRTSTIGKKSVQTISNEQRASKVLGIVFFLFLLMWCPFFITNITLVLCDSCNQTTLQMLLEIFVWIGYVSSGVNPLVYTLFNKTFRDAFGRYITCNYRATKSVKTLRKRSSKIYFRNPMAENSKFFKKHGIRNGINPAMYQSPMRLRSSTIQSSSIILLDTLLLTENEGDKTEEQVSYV
Sequence of 5-HT2A (Homo sapiens, UniProt P28223) (P28223 whole entry): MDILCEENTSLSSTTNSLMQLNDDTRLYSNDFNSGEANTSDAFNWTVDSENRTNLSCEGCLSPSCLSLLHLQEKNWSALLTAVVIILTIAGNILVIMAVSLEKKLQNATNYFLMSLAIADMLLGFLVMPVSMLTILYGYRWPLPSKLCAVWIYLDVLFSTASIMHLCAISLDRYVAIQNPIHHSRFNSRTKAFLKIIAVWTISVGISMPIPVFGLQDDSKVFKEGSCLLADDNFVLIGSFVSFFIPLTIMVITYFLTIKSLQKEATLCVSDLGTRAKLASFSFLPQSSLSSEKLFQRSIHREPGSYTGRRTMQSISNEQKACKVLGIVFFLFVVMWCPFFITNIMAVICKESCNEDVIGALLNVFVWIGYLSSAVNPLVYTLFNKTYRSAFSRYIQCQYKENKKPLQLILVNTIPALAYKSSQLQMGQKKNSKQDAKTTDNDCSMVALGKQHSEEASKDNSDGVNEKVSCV

For the molecule `COc1cc(OC)c(OC)cc1CCNC(C)c1cccc2ccccc12` (stereo not shown) (as salt: HCl), the melting point (as a rule, the temperature, or range, at which the solid turns liquid) was 195.2 to 196.4 °C.
The same measure, in the same setting: to `COc1cc([N+](=O)[O-])c(OC)cc1CCNCc1cccc2ccccc12` (as salt: HCl) [25N-N-1-Nap (16), [2-(2,5-dimethoxy-4-nitrophenyl)ethyl][(naphthalen-1-yl)methyl]amine] belongs 191.8 to 192.3 °C; to `COc1cc([N+](=O)[O-])c(OC)cc1CCNCc1ccccc1` (as salt: HCl) [25N-NB (2), Benzyl[2-(2,5-dimethoxy-4-nitrophenyl)ethyl]amine], 220 to 221 °C.
The molecule `COc1cc([N+](=O)[O-])c(OC)cc1CCNCc1cccc(F)c1OC` (as salt: HCl) [25N-NB-2-MeO-3-F (19), [2-(2,5-dimethoxy-4-nitrophenyl)ethyl][(3-fluoro-2-methoxyphenyl)methyl]amine] yielded a melting point of 155 to 156.7 °C.
Molecule `COc1cc([N+](=O)[O-])c(OC)cc1CCNCc1cccc(C)c1O` (as salt: HCl) [25N-NB-2-OH-3-Me (18), 2-({[2-(2,5-dimethoxy-4-nitrophenyl)ethyl]amino}methyl)-6-methylphenol] showed a melting point of 177.6 to 179.5 °C.
In turn, `COc1cc([N+](=O)[O-])c(OC)cc1CCNCc1cccc(F)c1` (as salt: HCl) [25N-NB-3-F (24), [2-(2,5-dimethoxy-4-nitrophenyl)ethyl][(3-fluorophenyl)methyl]amine] gave a melting point of 216.2 to 217.5 °C.
As for `COc1cc([N+](=O)[O-])c(OC)cc1CCNCc1cccc(C)c1` (as salt: HCl) [25N-NB-3-Me (22), [2-(2,5-dimethoxy-4-nitrophenyl)ethyl][(3-methylphenyl)methyl]amine], the melting point was in the range of 194.4 to 195.5 °C.
The molecule `COc1cc([N+](=O)[O-])c(OC)cc1CCNCc1cccc(O)c1` (as salt: HCl) [25N-NB-3-OH (21), 3-({[2-(2,5-dimethoxy-4-nitrophenyl)ethyl]amino}methyl)phenol] gave a melting point of 194 to 195.5 °C.
Molecule `COc1cc([N+](=O)[O-])c(OC)cc1CCNCc1ccc(F)cc1` (as salt: HCl) [25N-NB-4-F (25), [2-(2,5-dimethoxy-4-nitrophenyl)ethyl][(4-fluorophenyl)methyl]amine] returned a melting point of 180 to 181 °C.
`COc1cc([N+](=O)[O-])c(OC)cc1CCNCc1ccc(C)cc1` (as salt: HCl) [25N-NB-4-Me (23), [2-(2,5-dimethoxy-4-nitrophenyl)ethyl] [(4-methylphenyl)methyl]amine] showed a melting point of 182 to 184 °C.
`COc1cc([N+](=O)[O-])c(OC)cc1CCNCc1ccccc1C(F)(F)F` (as salt: HCl) [25N-NBCF3 (14), [2-(2,5-dimethoxy-4-nitrophenyl)ethyl]({[2-(trifluoromethyl)phenyl]methyl}) amine] returned a melting point of 156.7 to 159.1 °C.
Take `COc1cc([N+](=O)[O-])c(OC)cc1CCNCc1cccc2c1OC(F)(F)O2` (as salt: HCl) [25N-NBMDF2 (13), [(2,2-difluoro-2H-1,3-benzodioxol-4-yl)methyl][2-(2,5-dimethoxy-4-nitrophenyl)ethyl]amine]: the melting point lay in the range of 208.4 to 209.8 °C.
Turning to `COc1cc([N+](=O)[O-])c(OC)cc1CCNCc1ccccc1[N+](=O)[O-]` (as salt: HCl) [25N-NBNO2 (15), [2-(2,5-dimethoxy-4-nitrophenyl)ethyl][(2-nitrophenyl)methyl]amine], the melting point is 200.5 to 201.7 °C.
In turn, `COc1cc([N+](=O)[O-])c(OC)cc1CCNCc1ccccc1O` (as salt: HCl) [25N-NBOH (3), 2-({[2-(2,5-dimethoxy-4-nitrophenyl)ethyl]amino}methyl)phenol] had a melting point of 205 to 206.7 °C.
The same measure, in the same setting: to `COc1cc([N+](=O)[O-])c(OC)cc1CCNCc1ccccc1OC` (as salt: HCl) [25N-NBOMe (4), [2-(2,5-dimethoxy-4-nitrophenyl)ethyl] [(2-methoxyphenyl)methyl]amine] belongs 166.4 to 167.8 °C.
With `COc1cc([N+](=O)[O-])c(OC)cc1CCNCc1ccccc1-c1ccccc1` (as salt: HCl) [25N-NBPh (17), ({[1,1′-biphenyl]-2-yl}methyl)[2-(2,5-dimethoxy-4-nitrophenyl)ethyl]amine], the melting point was 181.5 to 182.5 °C.
As for `COc1cc([N+](=O)[O-])c(OC)cc1CCNCc1ccccc1Cl` [25N-NBCl (8)], in the data set on 5-HT2A [1], the “5-HT2A/5-HT2c Selectivity Factor ΔLog(Emax/EC50)” value is 43.3. The “Max HTR response during a 30-min assessment (maximum counts ÷ baseline response)” value in the data set on male C57BL/6J mice is 2.3-fold increase. Moreover, the ED50 was 10.4 µmol/kg with male C57BL/6J mice (setting [7]) and 4.04 mg/kg with male C57BL/6J mice (setting [8]). In addition, the EC50 (usually the concentration that produces a half-maximal response) at 5-HT2A [2] is 2.03 nM; at 5-HT2C [4], 89.3 nM; at 5-HT2B [5], 204 nM; on 5-HT2C [6], 21.4 nM. Besides, the Emax (in general, the size of the effect at its maximum, as opposed to the concentration needed) is 80 ± 2% at 5-HT2A [2]; less than 10% at 5-HT2B [3]; 81 ± 2% at 5-HT2C [4]; 27 ± 3% on 5-HT2B [5]; 82.5 ± 2.8% at 5-HT2C [6]. Moreover, on 5-HT2B [3], the “5-HT2B EC50, nM” value is recorded as “No activity”.
`COc1cc([N+](=O)[O-])c(OC)cc1CCNCc1ccccc1F` [25N-NBF (7)]: the “5-HT2A/5-HT2c Selectivity Factor ΔLog(Emax/EC50)” value in the data set with 5-HT2A [1] stood at 18.9. The “Max HTR response during a 30-min assessment (maximum counts ÷ baseline response)” value in the data set with male C57BL/6J mice is given as 4.5-fold increase. The ED50 was determined as 4.1 µmol/kg with male C57BL/6J mice (setting [7]) and 1.52 mg/kg with male C57BL/6J mice (setting [8]). The EC50 at 5-HT2A [2] was 1.56 nM; on 5-HT2C [4], 28.8 nM; at 5-HT2B [5], 75.9 nM; at 5-HT2C [6], 14.1 nM. The Emax is 84 ± 1% on 5-HT2A [2]; less than 10% on 5-HT2B [3]; 82 ± 2% on 5-HT2C [4]; 24.8 ± 3.2% on 5-HT2B [5]; 83.1 ± 2.1% on 5-HT2C [6]. The “5-HT2B EC50, nM” value on 5-HT2B [3] was “No activity”.
With `COc1cc([N+](=O)[O-])c(OC)cc1CCNCc1ccccc1C` [25N-NBMe (6)], the “5-HT2A/5-HT2c Selectivity Factor ΔLog(Emax/EC50)” value with 5-HT2A [1] is reported as 26.7. Also, in the data set with male C57BL/6J mice, the “Max HTR response during a 30-min assessment (maximum counts ÷ baseline response)” value is on record as 8.0-fold increase. Moreover, the ED50 was 3.24 µmol/kg in the data set with male C57BL/6J mice (setting [7]) and 1.19 mg/kg with male C57BL/6J mice (setting [8]). Moreover, the EC50 on 5-HT2A [2] is 1.19 nM; at 5-HT2C [4], 33.2 nM; at 5-HT2B [5], 9.55 nM; at 5-HT2C [6], 11.5 nM. For the same molecule, the Emax at 5-HT2A [2] was 85 ± 1%; on 5-HT2B [3], less than 10%; on 5-HT2C [4], 89 ± 2%; on 5-HT2B [5] it was 22.2 ± 3.2%; at 5-HT2C [6], 89.4 ± 2.3%. The “5-HT2B EC50, nM” value at 5-HT2B [3] is listed as “No activity”.
